Literature values in US20220151901A1, “A METHOD OF COLORING KERATINOUS MATERIAL COMPRISING THE USE OF AN ORGANOSILICON COMPOUND, A COLORING COMPOUND, AND A MIXTURE OF SILICONES” (Henkel AG & Co. KGaA, priority 2019, published 2022).

Conditions: 25° C.

| solubility in water (in words) | Compound | solubility in water |
| --- | --- | --- |
| – | CCN(Cc1cccc(S(=O)(=O)[O-])c1)c1ccc(C(=C2C=CC(=[N+](CC)Cc3cccc(S(=O)(=O)[O-])c3)C=C2)c2ccccc2S(=O)(=O)[O-])cc1.[Na+].[Na+] [Acid Blue 9] | more than 20 % by weight |
| – | O=S(=O)([O-])c1ccc(N=Nc2c(O)ccc3ccccc23)cc1.[Na+] [Acid Orange 7, sodium salt of 4-[(2-hydroxy-1-naphthyl)azo]benzene sulphonate] | more than 7 g/L |
| – | Nc1cc(S(=O)(=O)[O-])cc2cc(S(=O)(=O)[O-])c(N=Nc3ccccc3)c(O)c12.[Na+].[Na+] [Acid Red 33, disodium salt of 5-amino-4-hydroxy-3-(phenylazo)-naphthalene-2,7-disulphonate] | 2500 µg/mL |
| – | O=C([O-])c1c(Cl)c(Cl)c(Cl)c(Cl)c1-c1c2c(Br)cc(=O)c(Br)c-2oc2c(Br)c(O)cc(Br)c12.O=C([O-])c1c(Cl)c(Cl)c(Cl)c(Cl)c1-c1c2c(Br)cc(=O)c(Br)c-2oc2c(Br)c(O)cc(Br)c12.[Na+].[Na+] [Acid Red 92, disodium salt of 3,4,5,6-tetrachloro-2-(1,4,5,8-tetrabromo-6-hydroxy-3-oxoxanthen-9-yl)benzoic acid] | greater than 10 g/L |
| highly soluble | O=C([O-])C1=NN(c2ccc(S(=O)(=O)[O-])cc2)C(=O)C1N=Nc1ccc(S(=O)(=O)[O-])cc1.[Na+].[Na+].[Na+] (centres unmarked) [Acid Yellow 23, trisodium salt of 4,5-dihydro-5-oxo-1-(4-sulfophenyl)-4-((4-sulfophenyl)azo)-1H-pyrazole-3-carboxylic acid] | – |
